Data from US9226916B2, “Pyrrolidine derivatives” (HOFFMANN-LA ROCHE INC., priority 2009, dated 2016).
pKi: −log10 of the molar value.

Molecular target: T1, recombinant human NK3 receptor (Homo sapiens, UniProt P29371)
T1 construct: expressed in transfected cells; host or cells: HEK293 cells, transient expression; membranes
T1 sequence (P29371 1-465): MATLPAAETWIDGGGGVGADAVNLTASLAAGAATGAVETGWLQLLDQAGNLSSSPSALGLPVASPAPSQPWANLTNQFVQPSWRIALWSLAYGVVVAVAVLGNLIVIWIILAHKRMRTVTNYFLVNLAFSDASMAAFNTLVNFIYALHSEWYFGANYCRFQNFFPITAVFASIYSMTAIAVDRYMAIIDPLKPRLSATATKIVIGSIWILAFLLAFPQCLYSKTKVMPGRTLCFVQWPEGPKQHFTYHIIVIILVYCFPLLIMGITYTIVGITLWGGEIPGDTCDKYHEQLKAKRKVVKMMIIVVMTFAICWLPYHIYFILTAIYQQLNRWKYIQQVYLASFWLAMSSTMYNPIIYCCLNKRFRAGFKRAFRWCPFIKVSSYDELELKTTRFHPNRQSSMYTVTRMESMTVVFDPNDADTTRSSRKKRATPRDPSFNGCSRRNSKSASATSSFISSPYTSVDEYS
Test: [3H]SR142801 competition binding assay

CC(=O)N1CCC(C(=O)N2C[C@@H](N(C)C(=O)Oc3ccc(F)cc3)[C@H](c3ccc(Cl)cc3)C2)CC1 [Example 246, [(3S,4R)-1-(1-Acetyl-piperidine-4-carbonyl)-4-(4-chloro-phenyl)-pyrrolidin-3-yl]-methyl-carbamic acid 4-fluoro-phenyl ester]
pKi: 8.64

CN(C(=O)Oc1ccc(F)cc1)[C@@H]1CN(C(=O)C2CCN(C(=O)C3CCC3)CC2)C[C@H]1c1ccc(Cl)cc1 [Example 247, [(3S,4R)-4-(4-Chloro-phenyl)-1-(1-cyclobutanecarbonyl-piperidine-4-carbonyl)-pyrrolidin-3-yl]-methyl-carbamic acid 4-fluoro-phenyl ester]
pKi: 9.05

CN(C(=O)Oc1ccc(F)cc1)[C@@H]1CN(C(=O)C2CCN(C(=O)C3(C)COC3)CC2)C[C@H]1c1ccc(Cl)cc1 [Example 248, {(3S,4R)-4-(4-Chloro-phenyl)-1-[1-(3-methyl-oxetane-3-carbonyl)-piperidine-4-carbonyl]-pyrrolidin-3-yl}-methyl-carbamic acid 4-fluoro-phenyl ester]
pKi: 8.55

CN(C(=O)Oc1ccc(F)cc1)[C@@H]1CN(C(=O)C2CCN(C(=O)C3CC(F)C3)CC2)C[C@H]1c1ccc(Cl)cc1 (stereo partly drawn) [Example 249, {(3S,4R)-4-(4-Chloro-phenyl)-1-[1-(3-fluoro-cyclobutanecarbonyl)-piperidine-4-carbonyl]-pyrrolidin-3-yl}-methyl-carbamic acid 4-fluoro-phenyl ester]
pKi: 8.72

CN(C(=O)Oc1ccc(F)cc1)[C@@H]1CN(C(=O)C2CCN(C(=O)C3CC(F)(F)C3)CC2)C[C@H]1c1ccc(Cl)cc1 [Example 250, {(3S,4R)-4-(4-Chloro-phenyl)-1-[1-(3,3-difluoro-cyclobutanecarbonyl)-piperidine-4-carbonyl]-pyrrolidin-3-yl}-methyl-carbamic acid 4-fluoro-phenyl Ester]
pKi: 8.85

COC1CC(C(=O)N2CCC(C(=O)N3C[C@@H](N(C)C(=O)Oc4ccc(F)cc4)[C@H](c4ccc(Cl)cc4)C3)CC2)C1 (stereo partly drawn) [Example 251, {(3S,4R)-4-(4-Chloro-phenyl)-1-[1-(3-methoxy-cyclobutanecarbonyl)-piperidine-4-carbonyl]-pyrrolidin-3-yl}-methyl-carbamic acid 4-fluoro-phenyl ester]
pKi: 8.66

CN(C(=O)Oc1ccc(F)cc1)[C@@H]1CN(C(=O)C2CCN(C(=O)C3(C(F)(F)F)CCC3)CC2)C[C@H]1c1ccc(Cl)cc1 [Example 252, {(3S,4R)-4-(4-Chloro-phenyl)-1-[1-(1-trifluoromethyl-cyclobutanecarbonyl)-piperidine-4-carbonyl]-pyrrolidin-3-yl}-methyl-carbamic acid 4-fluoro-phenyl ester]
pKi: 8.57

CN(C(=O)Oc1ccc(F)cc1)[C@@H]1CN(C(=O)C2CCN(C(=O)CC#N)CC2)C[C@H]1c1ccc(Cl)cc1 [Example 253, {(3S,4R)-4-(4-Chloro-phenyl)-1-[1-(2-cyano-acetyl)-piperidine-4-carbonyl]-pyrrolidin-3-yl}-methyl-carbamic acid 4-fluoro-phenyl ester]
pKi: 8.74

CN(C(=O)Oc1ccc(F)cc1)[C@@H]1CN(C(=O)C2CCN(C(=O)C3(C#N)CC3)CC2)C[C@H]1c1ccc(Cl)cc1 [Example 254, {(3S,4R)-4-(4-Chloro-phenyl)-1-[1-(1-cyano-cyclopropanecarbonyl)-piperidine-4-carbonyl]-pyrrolidin-3-yl}-methyl-carbamic acid 4-fluoro-phenyl ester]
pKi: 8.70

CN(C(=O)Oc1ccc(F)cc1)[C@@H]1CN(C(=O)C2CCN(C(=O)C3(C(F)(F)F)CC3)CC2)C[C@H]1c1ccc(Cl)cc1 [Example 255, {(3S,4R)-4-(4-Chloro-phenyl)-1-[1-(1-trifluoromethyl-cyclopropanecarbonyl)-piperidine-4-carbonyl]-pyrrolidin-3-yl}-methyl-carbamic acid 4-fluoro-phenyl ester]
pKi: 8.60

CN(C(=O)Oc1ccc(F)cc1)[C@@H]1CN(C(=O)C2CCN(C(=O)C3CC3(F)F)CC2)C[C@H]1c1ccc(Cl)cc1 (stereo partly drawn) [Example 256, {(3S,4R)-4-(4-Chloro-phenyl)-1-[1-(2,2-difluoro-cyclopropanecarbonyl)-piperidine-4-carbonyl]-pyrrolidin-3-yl}-methyl-carbamic acid 4-fluoro-phenyl ester]
pKi: 8.59

CN(C(=O)Oc1ccc(F)cc1)[C@@H]1CN(C(=O)C2CCN(C(=O)C3CCOCC3)CC2)C[C@H]1c1ccc(Cl)cc1 [Example 257, {(3S,4R)-4-(4-Chloro-phenyl)-1-[1-(tetrahydro-pyran-4-carbonyl)-piperidine-4-carbonyl]-pyrrolidin-3-yl}-methyl-carbamic acid 4-fluoro-phenyl ester]
pKi: 8.66

CN(C(=O)Oc1ccc(F)cc1)[C@@H]1CN(C(=O)C2CCN(C(=O)C3CCOC(C)(C)C3)CC2)C[C@H]1c1ccc(Cl)cc1 (stereo partly drawn) [Example 258, {(3S,4R)-4-(4-Chloro-phenyl)-1-[1-(2,2-dimethyl-tetrahydro-pyran-4-carbonyl)-piperidine-4-carbonyl]-pyrrolidin-3-yl}-methyl-carbamic acid 4-fluoro-phenyl ester]
pKi: 8.54

COCC1(C(=O)N2CCC(C(=O)N3C[C@@H](N(C)C(=O)Oc4ccc(F)cc4)[C@H](c4ccc(Cl)cc4)C3)CC2)CC1 [Example 259, {(3S,4R)-4-(4-Chloro-phenyl)-1-[1-(1-methoxymethyl-cyclopropanecarbonyl)-piperidine-4-carbonyl]-pyrrolidin-3-yl}-methyl-carbamic acid 4-fluoro-phenyl ester]
pKi: 8.42

CN(C(=O)Oc1ccc(F)cc1)[C@@H]1CN(C(=O)C2CCN(C(=O)C3CC3(C)C)CC2)C[C@H]1c1ccc(Cl)cc1 (stereo partly drawn) [Example 260, {(3S,4R)-4-(4-Chloro-phenyl)-1-[1-(2,2-dimethyl-cyclopropanecarbonyl)-piperidine-4-carbonyl]-pyrrolidin-3-yl}-methyl-carbamic acid 4-fluoro-phenyl ester]
pKi: 8.82

CN(C(=O)Oc1ccc(F)cc1)[C@@H]1CN(C(=O)C2CCN(C(=O)c3ccc(C(F)(F)F)cn3)CC2)C[C@H]1c1ccc(Cl)cc1 [Example 261, {(3S,4R)-4-(4-Chloro-phenyl)-1-[1-(5-trifluoromethyl-pyridine-2-carbonyl)-piperidine-4-carbonyl]-pyrrolidin-3-yl}-methyl-carbamic acid 4-fluoro-phenyl ester]
pKi: 7.72

CN(C(=O)Oc1ccc(F)cc1)[C@@H]1CN(C(=O)C2CCN(C(=O)c3ccc(F)cn3)CC2)C[C@H]1c1ccc(Cl)cc1 [Example 262, {(3S,4R)-4-(4-Chloro-phenyl)-1-[1-(5-fluoro-pyridine-2-carbonyl)-piperidine-4-carbonyl]-pyrrolidin-3-yl}-methyl-carbamic acid 4-fluoro-phenyl ester]
pKi: 8.41

CN(C(=O)Oc1ccc(F)cc1)[C@@H]1CN(C(=O)C2CCN(C(=O)C3CCC(=O)NC3)CC2)C[C@H]1c1ccc(Cl)cc1 (stereo partly drawn) [Example 263, {(3S,4R)-4-(4-Chloro-phenyl)-1-[1-(6-oxo-piperidine-3-carbonyl)-piperidine-4-carbonyl]-pyrrolidin-3-yl}-methyl-carbamic acid 4-fluoro-phenyl ester]
pKi: 7.82

CC(C)N1CC(C(=O)N2CCC(C(=O)N3C[C@@H](N(C)C(=O)Oc4ccc(F)cc4)[C@H](c4ccc(Cl)cc4)C3)CC2)CCC1=O (stereo partly drawn) [Example 264, {(3S,4R)-4-(4-Chloro-phenyl)-1-[1-(1-isopropyl-6-oxo-piperidine-3-carbonyl)-piperidine-4-carbonyl]-pyrrolidin-3-yl}-methyl-carbamic acid 4-fluoro-phenyl ester]
pKi: 8.06

CN(C(=O)Oc1ccc(F)cc1)[C@@H]1CN(C(=O)C2CCN(C(=O)C3CCC3)CC2)C[C@H]1c1ccc(Cl)c(Cl)c1 [Example 265, [(3S,4R)-1-(1-Cyclobutanecarbonyl-piperidine-4-carbonyl)-4-(3,4-dichloro-phenyl)-pyrrolidin-3-yl]-methyl-carbamic acid 4-fluoro-phenyl ester]
pKi: 9.22

CN(C(=O)Oc1ccc(F)cc1)[C@@H]1CN(C(=O)C2CCN(C(=O)C3(C)COC3)CC2)C[C@H]1c1ccc(Cl)c(Cl)c1 [Example 266, {(3S,4R)-4-(3,4-Dichloro-phenyl)-1-[1-(3-methyl-oxetane-3-carbonyl)-piperidine-4-carbonyl]-pyrrolidin-3-yl}-methyl-carbamic acid 4-fluoro-phenyl ester]
pKi: 9.30

CN(C(=O)Oc1ccc(F)cc1)[C@@H]1CN(C(=O)C2CCN(C(=O)C3CC(F)C3)CC2)C[C@H]1c1ccc(Cl)c(Cl)c1 (stereo partly drawn) [Example 267, {(3S,4R)-4-(3,4-Dichloro-phenyl)-1-[1-(3-fluoro-cyclobutanecarbonyl)-piperidine-4-carbonyl]-pyrrolidin-3-yl}-methyl-carbamic acid 4-fluoro-phenyl ester]
pKi: 9.15

CN(C(=O)Oc1ccc(F)cc1)[C@@H]1CN(C(=O)C2CCN(C(=O)C3CC(F)(F)C3)CC2)C[C@H]1c1ccc(Cl)c(Cl)c1 [Example 268, {(3S,4R)-4-(3,4-Dichloro-phenyl)-1-[1-(3,3-difluoro-cyclobutanecarbonyl)-piperidine-4-carbonyl]-pyrrolidin-3-yl}-methyl-carbamic acid 4-fluoro-phenyl ester]
pKi: 9.22

COC1CC(C(=O)N2CCC(C(=O)N3C[C@@H](N(C)C(=O)Oc4ccc(F)cc4)[C@H](c4ccc(Cl)c(Cl)c4)C3)CC2)C1 (stereo partly drawn) [Example 269, {(3S,4R)-4-(3,4-Dichloro-phenyl)-1-[1-(3-methoxy-cyclobutanecarbonyl)-piperidine-4-carbonyl]-pyrrolidin-3-yl}-methyl-carbamic acid 4-fluoro-phenyl ester]
pKi: 9.30
